Patent US10300176B2, “Catheter lock solution formulations” (Medline Industries, Inc., priority 2013, dated 2019)

Assay: break through pressure or vacuum level after exhaustive drying of lock formulations in simulated silicone catheter tubing
Type: physicochemical
Conditions: excipient at approximately 1% by weight
Source text: FIG. 1 is a view of a sphygmomanometer 10 connected to a syringe 12. The sphygmomanometer 10 includes a gauge 14 with a visual display 16 to measure the pressure or vacuum level. The sphygmomanometer 10 and the syringe 12 were used to measure the break through pressure or vacuum level.
Long silicone rubber commercial catheter extension tubing segments spliced together, or a single small bore with a 1.5 mm inner diameter clear, and very soft laboratory silicone rubber tubing of about 15 inch in length were used for evaluation. Formulations of 30% weight per volume (w/v) ethanol and 4% weight per weight (w/w) tri-sodium citrate with candidate biocompatible excipients were prepared and charged into the lumens of simulated catheter tubings and capped with solid plugs. The samples were first dried near a de-humidifier for about 24 hours to allow evaporation of most ethanol before being placed into a clear polycarbonate drying column connected in series with a large Drierite® desiccant column. The columns were also fitted with a gas flow meter and a diaphragm gas pump to provide closed loop gas circulation at about 4 liter per minute (min-1). […] Both the pressure (+) or vacuum (−) levels to cause the liquid or solid plug movement were measured when subjected to actuation movements from a small air filled syringe 12 connected to a sphygmomanometer 10. […]

effectiveness of excipient in words: conditionally acceptable
time free flowing: greater than 7 days
SMILES: OCC(O)CO [glycerol]
